Reference: patent US11339171B2, “MDM2 inhibitors” (Gan & Lee Pharmaceuticals, priority 2017, dated 2022)
Several values for one entry are separate records, joined by “and”; a condition that tells them apart may be missing. Identical values can stand only once. Like-named read-outs stand apart in the source and are kept apart here.

Key:
[1] = biological target: T1, MDM2 (Homo sapiens, UniProt Q00987); assay: Inhibition test of MDM2-P53 (GST-MDM2, Biotin-P53, Anti-GST-Tb, SA-XL665); format: binding
T1 construct: made in house
Method in brief: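 HTRF-type assay using 4 nM GST-MDM2 (final), Biotin-P53, SA-XL665 and anti-GST-Tb in PBS with 0.1% BSA, 5 mM DTT and 1 mM AEBSF. Compounds in 5-fold serial dilutions over twelve points; incubation 90 min at 25° C with shaking before plate-reader read-out.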

[2] = tested on: human osteosarcoma cell line SJSA-1; assay: Inhibition of proliferation of human osteosarcoma cell line SJSA-1 (DAPI staining, In Cell Analyzer); settings: Homo sapiens, SJSA-1, 72 h, read-out: IC50 (nM), inhibitory activity on proliferation of human osteosarcoma cell line SJSA-1, SJSA-1, incubated 72 h
[3] = Pharmacokinetics in ICR mice after intravenous and intragastric administration; format: in vivo; settings: for MRT last: read-out: MRT(0-t); for MRT inf: read-out: MRT(0-∞); for Vd: read-out: Vz
Method in brief: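 Plasma concentrations by LC-MS/MS (range 1 to 2000 ng/ml) following single intravenous (2 mg/kg) or oral gavage (5 mg/kg) dosing of fasted male ICR mice, three per group. Vehicle 5% DMSO + 40% PEG400 + 55% (10% HP-β-CD in saline); standard PK parameters including bioavailability calculated.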

[4] = ICR mice, IV 2 mg/kg, individual animal, 2 mg/kg
[5] = ICR mice, PO 5 mg/kg, individual animal, 5 mg/kg
[6] = male, ICR, mouse, plasma, iv, 2 mg/kg, ICR mice, IV 2 mg/kg, individual animal
[7] = male, ICR, mouse, plasma, iv, 2 mg/kg, ICR mice, IV 2 mg/kg, individual animal, read-out: AUC(0-t)
[8] = male, ICR, mouse, plasma, iv, 2 mg/kg, ICR mice, IV 2 mg/kg, individual animal, read-out: Cmax
[9] = male, ICR, mouse, plasma, iv, 2 mg/kg, ICR mice, IV 2 mg/kg, individual animal, read-out: t1/2 (converted)
[10] = male, ICR, mouse, plasma, iv, 2 mg/kg, ICR mice, IV 2 mg/kg, mean of 3 animals
[11] = male, ICR, mouse, plasma, iv, 2 mg/kg, ICR mice, IV 2 mg/kg, mean of 3 animals, read-out: AUC(0-t)
[12] = male, ICR, mouse, plasma, iv, 2 mg/kg, ICR mice, IV 2 mg/kg, mean of 3 animals, read-out: Cmax
[13] = male, ICR, mouse, plasma, iv, 2 mg/kg, ICR mice, IV 2 mg/kg, mean of 3 animals, read-out: Tmax
[14] = male, ICR, mouse, plasma, iv, 2 mg/kg, ICR mice, IV 2 mg/kg, mean of 3 animals, read-out: t1/2 (converted)
[15] = male, ICR, mouse, plasma, po, 5 mg/kg, ICR mice, PO 5 mg/kg, individual animal
[16] = male, ICR, mouse, plasma, po, 5 mg/kg, ICR mice, PO 5 mg/kg, individual animal, read-out: AUC(0-t)
[17] = male, ICR, mouse, plasma, po, 5 mg/kg, ICR mice, PO 5 mg/kg, individual animal, read-out: Cmax
[18] = male, ICR, mouse, plasma, po, 5 mg/kg, ICR mice, PO 5 mg/kg, individual animal, read-out: Tmax
[19] = male, ICR, mouse, plasma, po, 5 mg/kg, ICR mice, PO 5 mg/kg, individual animal, read-out: t1/2 (converted)
[20] = male, ICR, mouse, plasma, po, 5 mg/kg, ICR mice, PO 5 mg/kg, mean of 3 animals
[21] = male, ICR, mouse, plasma, po, 5 mg/kg, ICR mice, PO 5 mg/kg, mean of 3 animals, read-out: AUC(0-t)
[22] = male, ICR, mouse, plasma, po, 5 mg/kg, ICR mice, PO 5 mg/kg, mean of 3 animals, read-out: Cmax
[23] = male, ICR, mouse, plasma, po, 5 mg/kg, ICR mice, PO 5 mg/kg, mean of 3 animals, read-out: Tmax
[24] = male, ICR, mouse, plasma, po, 5 mg/kg, ICR mice, PO 5 mg/kg, mean of 3 animals, read-out: t1/2 (converted)
[25] = male, ICR, mouse, plasma, po, 5 mg/kg, oral intragastric administration 5 mg/kg, read-out: AUC0-t
[26] = male, ICR, mouse, plasma, po, 5 mg/kg, oral intragastric administration 5 mg/kg, read-out: half-life (converted)
[27] = male, mouse, plasma, ICR mice, PO 5 mg/kg vs IV 2 mg/kg, from mean values, read-out: F* (bioavailability)

T1 sequence (Q00987 whole entry): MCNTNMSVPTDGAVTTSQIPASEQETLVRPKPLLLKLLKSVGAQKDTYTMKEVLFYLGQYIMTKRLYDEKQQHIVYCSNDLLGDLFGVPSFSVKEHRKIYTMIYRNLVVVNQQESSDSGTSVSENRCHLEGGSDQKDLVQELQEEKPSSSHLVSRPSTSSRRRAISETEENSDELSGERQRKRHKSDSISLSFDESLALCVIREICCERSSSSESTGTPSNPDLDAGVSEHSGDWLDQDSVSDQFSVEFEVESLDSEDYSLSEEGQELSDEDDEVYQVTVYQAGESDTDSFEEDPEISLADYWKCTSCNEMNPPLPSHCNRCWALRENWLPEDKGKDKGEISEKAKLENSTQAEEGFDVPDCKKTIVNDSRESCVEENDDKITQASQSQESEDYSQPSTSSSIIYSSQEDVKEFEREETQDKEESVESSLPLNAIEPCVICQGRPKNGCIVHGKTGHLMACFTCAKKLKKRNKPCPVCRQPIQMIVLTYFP

In the case of `COc1nc(C2CC2)ncc1-c1nc2c(n1C(C)C)[C@@]1(C(=O)Nc3cc(Cl)ccc31)N(c1cc(Cl)ccc1C)C2=O` [Example S-121, (S)-6-chloro-5′-(5-chloro-2-methylphenyl)-2′-(2-cyclopropyl-4-methoxypyrimidin-5-yl)-3′-isopropyl-3′H-spiro[dihydroindole-3,4′-pyrrolo[3,4-d]imidazole]-2,6′(5′H)-dione], the IC50 [1] is reported as 3.35 nM, the IC50 [2] is reported as 67 nM and the “AUC(0-t)” value [3, 4] is reported as 26953.62 ng·h/mL and 24572.30 ng·h/mL. The “AUC(0-∞)” value [3, 4] was 27749.72 ng·h/mL and 25488.79 ng·h/mL, the CL [3, 4] was 1.20 mL/min/kg and 1.31 mL/min/kg and the Cmax [3, 4] was 3576.94 ng/mL and 3887.60 ng/mL. For the same molecule, the “MRT(0-t)” value [3, 4] was 5.04 h and 5.26 h, the “MRT(0-∞)” value [3, 4] was 5.79 h and 6.22 h and the Vz [3, 4] was 0.53 L/kg and 0.62 L/kg. The t1/2 [3, 4] was 5.09 h and 5.50 h, the “AUC(0-t)” value [3, 5] was 43063.09 ng·h/mL and 40782.54 ng·h/mL and the “AUC(0-∞)” value [3, 5] was 43407.01 ng·h/mL and 41032.91 ng·h/mL. The Cmax [3, 5] was 4835.52 ng/mL and 4714.57 ng/mL, the “MRT(0-t)” value [3, 5] was 5.27 h and 5.40 h and the “MRT(0-∞)” value [3, 5] was 5.45 h and 5.54 h. The Tmax [3, 5] was 4.00 h, the t1/2 [3, 5] was 3.34 h and 3.14 h and the AUC(0-inf) [3, 6] was 29400 ng·h/mL. For the same molecule, the clearance [3, 6] was 1.14 mL/min/kg, the AUC(0-t) [3, 7] was 28400 ng·h/mL and the Cmax [3, 8] was 3350 ng/mL. It also gave an MRT last [3, 6] of 5.15 h, an MRT inf [3, 6] of 6.03 h and a Tmax ([3]; male, ICR, mouse, plasma, iv, 2 mg/kg, ICR mice, IV 2 mg/kg, individual animal, read-out: Tmax) of 0.08 h. The Vd [3, 6] was 0.52 L/kg, the half-life [3, 9] was 5.25 h and the AUC(0-inf) [3, 10] was 27500 ng·h/mL. For the same molecule, the clearance [3, 10] was 1.21 mL/min/kg, the AUC(0-t) [3, 11] was 26600 ng·h/mL and the Cmax [3, 12] was 3600 ng/mL. For the same molecule, the MRT last [3, 10] was 5.15 h, the MRT inf [3, 10] was 6.01 h and the Tmax [3, 13] was 0.083 h. It also gave a Vd [3, 10] of 0.56 L/kg, a half-life [3, 14] of 5.28 h and an AUC(0-inf) [3, 15] of 40300 ng·h/mL. For the same molecule, the AUC(0-t) [3, 16] was 40100 ng·h/mL, the Cmax [3, 17] was 4920 ng/mL and the MRT last [3, 15] was 4.96 h. The MRT inf [3, 15] was 5.08 h, the Tmax [3, 18] was 2 h and the half-life [3, 19] was 3.09 h. It also gave an AUC(0-inf) [3, 20] of 41600 ng·h/mL, an AUC(0-t) [3, 21] of 41300 ng·h/mL and a Cmax [3, 22] of 4820 ng/mL. It also gave an MRT last [3, 20] of 5.21 h, an MRT inf [3, 20] of 5.36 h and a Tmax [3, 23] of 3.33 h. For the same molecule, the half-life [3, 24] was 3.19 h, the AUC(0-t) [3, 25] was 41300 ng·h/mL and the half-life [3, 26] was 3.19 h. The bioavailability [3, 27] was 62%.

For `COc1ncc(-c2nc3c(n2C(C)C)[C@@]2(C(=O)Nc4cc(Cl)ccc42)N(c2cc(F)cc(Cl)c2)C3=O)c(OC)n1` [Example S-45, (S)-6-chloro-5′-(3-chloro-5-fluorophenyl)-2′-(2,4-dimethoxypyrimidin-5-yl)-3′-isopropyl-3′H-spiro[dihydroindole-3,4′-pyrrolo[3,4-d]imidazole]-2,6′(5′H)-dione], the IC50 [1] was 1.72 nM, the IC50 [2] was 6.2 nM and the “AUC(0-t)” value [3, 4] was 1865.23 ng·h/mL and 2072.07 ng·h/mL. The “AUC(0-∞)” value [3, 4] was 1895.22 ng·h/mL and 2103.04 ng·h/mL, the CL [3, 4] was 17.59 mL/min/kg and 15.85 mL/min/kg and the Cmax [3, 4] was 779.74 ng/mL and 882.75 ng/mL. For the same molecule, the “MRT(0-t)” value [3, 4] was 1.36 h, the “MRT(0-∞)” value [3, 4] was 1.44 h and the Tmax [3, 4] was 0.08 h and 0.25 h. For the same molecule, the Vz [3, 4] was 1.54 L/kg and 1.37 L/kg, the t1/2 [3, 4] was 1.01 h and 1.00 h and the “AUC(0-t)” value [3, 5] was 5315.63 ng·h/mL and 4196.04 ng·h/mL. For the same molecule, the “AUC(0-∞)” value [3, 5] was 5471.40 ng·h/mL and 4431.71 ng·h/mL, the Cmax [3, 5] was 1355.63 ng/mL and 1169.32 ng/mL and the “MRT(0-t)” value [3, 5] was 2.53 h. The “MRT(0-∞)” value [3, 5] was 2.75 h, the Tmax [3, 5] was 1.00 h and the t1/2 [3, 5] was 1.54 h and 1.87 h. It also gave an AUC(0-inf) [3, 6] of 1830 ng·h/mL, a clearance [3, 6] of 18.3 mL/min/kg and an AUC(0-t) [3, 7] of 1790 ng·h/mL. The Cmax [3, 8] was 766 ng/mL, the MRT last [3, 6] was 1.34 h and the MRT inf [3, 6] was 1.45 h. The Vd [3, 6] was 1.65 L/kg, the half-life [3, 9] was 1.05 h and the AUC(0-inf) [3, 10] was 1940 ng·h/mL. For the same molecule, the clearance [3, 10] was 17.2 mL/min/kg, the AUC(0-t) [3, 11] was 19100 ng·h/mL and the Cmax [3, 12] was 809 ng/mL. It also gave an MRT last [3, 10] of 1.35 h, an MRT inf [3, 10] of 1.45 h and a Tmax [3, 13] of 0.139 h. It also gave a Vd [3, 10] of 1.52 L/kg, a half-life [3, 14] of 1.02 h and an AUC(0-inf) [3, 15] of 6350 ng·h/mL. For the same molecule, the AUC(0-t) [3, 16] was 5860 ng·h/mL, the Cmax [3, 17] was 1590 ng/mL and the MRT last [3, 15] was 2.56 h. It also gave an MRT inf [3, 15] of 3.21 h, a Tmax [3, 18] of 0.5 h and a half-life [3, 19] of 2.17 h. The AUC(0-inf) [3, 20] was 5420 ng·h/mL, the AUC(0-t) [3, 21] was 5120 ng·h/mL and the Cmax [3, 22] was 1370 ng/mL. It also gave an MRT last [3, 20] of 2.55 h, an MRT inf [3, 20] of 2.99 h and a Tmax [3, 23] of 0.83 h. For the same molecule, the half-life [3, 24] was 1.86 h, the AUC(0-t) [3, 25] was 5120 ng·h/mL and the half-life [3, 26] was 1.86 h. For the same molecule, the bioavailability ([3]; male, ICR, mouse, plasma, oral intragastric administration 5 mg/kg, read-out: bioavailability) was 107% and the bioavailability [3, 27] was 107%.
